Reference: patent US12491170B2, “Stable treprostinil prodrugs” (United Therapeutics Corporation, priority 2020, dated 2025)
Read-outs that look alike come from different tables or passages of the source. Blank lines part the entries; values can stand above or below the compound they belong to.

Columns and labels:
[1] = dog
[2] = Stability in liver microsomes, human; conditions: for AUC: human
[3] = Stability in liver microsomes, rat
[4] = Stability in cryopreserved hepatocytes, dog; conditions: for AUC: dog
[5] = rat
[6] = Stability in cryopreserved hepatocytes, rat; conditions: for AUC: rat
[7] = Stability in cryopreserved hepatocytes, human; conditions: for AUC: human
[8] = Stability in human subcutaneous skin homogenate; conditions: for AUC: human
[9] = Stability in liver microsomes, dog

AUC [1]: 53.25 µmol·min/L | Trep Concentration 0 min [2]: 1.17 µM | Trep Concentration 10 min [2]: 1.01 µM | Trep Concentration 20 min [2]: 0.837 µM | Trep Concentration 30 min [2]: 0.736 µM | Trep Concentration 60 min [2]: 0.389 µM | AUC [2]: 44.88 µmol·min/L | Trep Concentration 0 min [3]: 0.26 µM | Trep Concentration 10 min [3]: 0.43 µM | Trep Concentration 20 min [3]: 0.525 µM | Trep Concentration 30 min [3]: 0.586 µM | Trep Concentration 60 min [3]: 0.553 µM | Trep Concentration (μM) 0 min [4]: 0.124 µM | Trep Concentration (μM) 30 min [4]: 0.698 µM | Trep Concentration (μM) 60 min [4]: 0.599 µM | Trep Concentration (μM) 120 min [4]: 0.53 µM | AUC [4]: 71.21 µmol·min/L | AUC [5]: 30.87 µmol·min/L | Trep Concentration (μM) 0 min [6]: 0.0159 µM | Trep Concentration (μM) 15 min [6]: 0.506 µM | Trep Concentration (μM) 30 min [6]: 0.48 µM | Trep Concentration (μM) 60 min [6]: 0.424 µM | Trep Concentration (μM) 120 min [6]: 0.391 µM | AUC [6]: 49.32 µmol·min/L | Trep Concentration (μM) 0 min [7]: 0.113 µM | Trep Concentration (μM) 15 min [7]: 0.725 µM | Trep Concentration (μM) 30 min [7]: 0.654 µM | Trep Concentration (μM) 60 min [7]: 0.589 µM | Trep Concentration (μM) 120 min [7]: 0.527 µM | AUC [7]: 68.75 µmol·min/L | Trep Concentration 0 min [8]: 0.0045 µM | Trep Concentration 30 min [8]: 0.545 µM | Trep Concentration 60 min [8]: 0.741 µM | Trep Concentration 120 min [8]: 0.954 µM | AUC [8]: 78.38 µmol·min/L | Trep Concentration 0 min [9]: 0.971 µM | Trep Concentration 10 min [9]: 0.961 µM | Trep Concentration 20 min [9]: 0.934 µM | Trep Concentration 30 min [9]: 0.915 µM | Trep Concentration 60 min [9]: 0.743 µM
Compound: CCCCCC(CCC1C(O)CC2Cc3c(cccc3OCC(=O)O)CC21)OC(=O)CC (stereo not shown) [LV]

AUC [1]: 0.23 µmol·min/L | Trep Concentration 0 min [2]: 0.00583 µM | Trep Concentration 10 min [2]: 0.104 µM | Trep Concentration 20 min [2]: 0.156 µM | Trep Concentration 30 min [2]: 0.21 µM | Trep Concentration 60 min [2]: 0.292 µM | AUC [2]: 11.21 µmol·min/L | Trep Concentration 0 min [3]: 0 µM | Trep Concentration 10 min [3]: 0.00607 µM | Trep Concentration 20 min [3]: 0.00992 µM | Trep Concentration 30 min [3]: 0.0162 µM | Trep Concentration 60 min [3]: 0.023 µM | Trep Concentration (μM) 0 min [4]: 0 µM | Trep Concentration (μM) 15 min [4]: 0 µM | Trep Concentration (μM) 30 min [4]: 0 µM | Trep Concentration (μM) 60 min [4]: 0 µM | Trep Concentration (μM) 120 min [4]: 0 µM | AUC [4]: 0.00 µmol·min/L | AUC [5]: 0.83 µmol·min/L | Trep Concentration (μM) 0 min [6]: 0 µM | Trep Concentration (μM) 15 min [6]: 0.00378 µM | Trep Concentration (μM) 30 min [6]: 0.00483 µM | Trep Concentration (μM) 60 min [6]: 0.00537 µM | Trep Concentration (μM) 120 min [6]: 0.00521 µM | AUC [6]: 0.56 µmol·min/L | Trep Concentration (μM) 0 min [7]: 0 µM | Trep Concentration (μM) 15 min [7]: 0.0417 µM | Trep Concentration (μM) 30 min [7]: 0.0533 µM | Trep Concentration (μM) 60 min [7]: 0.0724 µM | Trep Concentration (μM) 120 min [7]: 0.0734 µM | AUC [7]: 7.29 µmol·min/L | Trep Concentration 0 min [8]: 0 µM | Trep Concentration 30 min [8]: 0 µM | Trep Concentration 60 min [8]: 0 µM | Trep Concentration 120 min [8]: 0 µM | AUC [8]: 0.00 µmol·min/L | Trep Concentration 0 min [9]: 0 µM | Trep Concentration 10 min [9]: 0 µM | Trep Concentration 20 min [9]: 0.00323 µM | Trep Concentration 30 min [9]: 0.00529 µM | Trep Concentration 60 min [9]: 0.00637 µM
Compound: CCCCCC(CCC1C(O)CC2Cc3c(cccc3OCC(=O)O)CC21)OC (stereo not shown) [XLV]

AUC [1]: 2.81 µmol·min/L | Trep Concentration 0 min [2]: 0.0227 µM | Trep Concentration 10 min [2]: 0.0216 µM | Trep Concentration 20 min [2]: 0.0492 µM | Trep Concentration 30 min [2]: 0.0352 µM | Trep Concentration 60 min [2]: 0.0539 µM | AUC [2]: 2.33 µmol·min/L | Trep Concentration 0 min [3]: 0.0254 µM | Trep Concentration 10 min [3]: 0.0305 µM | Trep Concentration 20 min [3]: 0.0389 µM | Trep Concentration 30 min [3]: 0.0458 µM | Trep Concentration 60 min [3]: 0.079 µM | Trep Concentration (μM) 0 min [4]: 0 µM | Trep Concentration (μM) 15 min [4]: 0.0601 µM | Trep Concentration (μM) 30 min [4]: 0.0885 µM | Trep Concentration (μM) 60 min [4]: 0.127 µM | Trep Concentration (μM) 120 min [4]: 0.139 µM | AUC [4]: 12.78 µmol·min/L | AUC [5]: 2.92 µmol·min/L | Trep Concentration (μM) 0 min [6]: 0 µM | Trep Concentration (μM) 15 min [6]: 0.0876 µM | Trep Concentration (μM) 30 min [6]: 0.129 µM | Trep Concentration (μM) 60 min [6]: 0.169 µM | Trep Concentration (μM) 120 min [6]: 0.239 µM | AUC [6]: 18.99 µmol·min/L | Trep Concentration (μM) 0 min [7]: 0 µM | Trep Concentration (μM) 15 min [7]: 0.0481 µM | Trep Concentration (μM) 30 min [7]: 0.0749 µM | Trep Concentration (μM) 60 min [7]: 0.123 µM | Trep Concentration (μM) 120 min [7]: 0.194 µM | AUC [7]: 13.76 µmol·min/L | Trep Concentration 0 min [8]: 0 µM | Trep Concentration 30 min [8]: 0.857 µM | Trep Concentration 60 min [8]: 0.82 µM | Trep Concentration 120 min [8]: 0.929 µM | AUC [8]: 90.48 µmol·min/L | Trep Concentration 0 min [9]: 0.0159 µM | Trep Concentration 10 min [9]: 0.0246 µM | Trep Concentration 20 min [9]: 0.0405 µM | Trep Concentration 30 min [9]: 0.0449 µM | Trep Concentration 60 min [9]: 0.0788 µM
Compound: CCCCCC(CCC1C(O)CC2Cc3c(cccc3OCC(=O)O)CC21)OC(=O)C(N)CCCCN (stereo not shown) [XXXV]

AUC [1]: 39.99 µmol·min/L | Trep Concentration 0 min [2]: 0.908 µM | Trep Concentration 10 min [2]: 0.679 µM | Trep Concentration 20 min [2]: 0.564 µM | Trep Concentration 30 min [2]: 0.463 µM | Trep Concentration 60 min [2]: 0.338 µM | AUC [2]: 31.30 µmol·min/L | Trep Concentration 0 min [3]: 0.849 µM | Trep Concentration 10 min [3]: 0.784 µM | Trep Concentration 20 min [3]: 0.765 µM | Trep Concentration 30 min [3]: 0.709 µM | Trep Concentration 60 min [3]: 0.811 µM | Trep Concentration (μM) 0 min [4]: 0.00351 µM | Trep Concentration (μM) 15 min [4]: 0.295 µM | Trep Concentration (μM) 30 min [4]: 0.273 µM | Trep Concentration (μM) 60 min [4]: 0.262 µM | Trep Concentration (μM) 120 min [4]: 0.262 µM | AUC [4]: 30.24 µmol·min/L | AUC [5]: 46.08 µmol·min/L | Trep Concentration (μM) 0 min [6]: 0.0862 µM | Trep Concentration (μM) 15 min [6]: 0.512 µM | Trep Concentration (μM) 30 min [6]: 0.426 µM | Trep Concentration (μM) 60 min [6]: 0.441 µM | Trep Concentration (μM) 120 min [6]: 0.455 µM | AUC [6]: 51.41 µmol·min/L | Trep Concentration (μM) 0 min [7]: 0.0156 µM | Trep Concentration (μM) 15 min [7]: 0.58 µM | Trep Concentration (μM) 30 min [7]: 0.47 µM | Trep Concentration (μM) 60 min [7]: 0.475 µM | Trep Concentration (μM) 120 min [7]: 0.461 µM | AUC [7]: 54.60 µmol·min/L | Trep Concentration 0 min [8]: 0 µM | Trep Concentration 30 min [8]: 0.486 µM | Trep Concentration 60 min [8]: 0.694 µM | Trep Concentration 120 min [8]: 0.848 µM | AUC [8]: 71.25 µmol·min/L | Trep Concentration 0 min [9]: 0.307 µM | Trep Concentration 10 min [9]: 0.544 µM | Trep Concentration 20 min [9]: 0.678 µM | Trep Concentration 30 min [9]: 0.729 µM | Trep Concentration 60 min [9]: 0.777 µM
Compound: CCCCCC(CCC1C(O)CC2Cc3c(cccc3OCC(=O)O)CC21)OC(=O)COc1ccc(O)cc1 (stereo not shown) [LIV]
